Data: the SangsterLogP compilation

SMILES	logP
Cn1c(CO)cnc1[N+](=O)[O-]	-0.03
CC(=O)c1ccccn1	0.85
OCCCCc1ccccc1	2.35
C1CCNC1	0.46
N#Cc1cccs1	1.27
CC(=O)Oc1ccccc1C(=O)O	1.19
CCOC(=O)C1(c2ccccc2)CCN(C)CC1	2.72
CNC(=O)CNC(C)=O	-1.56
CNC(=O)Oc1ccccc1I	1.94
N#Cc1ccc(OCC(=O)O)cc1	0.93
Nc1ncnc2c1ncn2[C@@H]1O[C@H](CO)C[C@H]1O	-0.61
CN1CCN(CCCN2c3ccccc3Sc3ccc(C(F)(F)F)cc32)CC1	5.03
CN/C(=C\[N+](=O)[O-])NCCSCc1ccc(CN(C)C)o1	0.27
COc1cc(C(=O)NN)ccn1	-0.1
Cc1ccc(S(N)(=O)=O)cc1	0.82
Cc1cccc2c([N+](=O)[O-])cc[n+]([O-])c12	1.59
Cc1ccnc2c(O)cccc12	2.41
Nc1ccc(S(=O)(=O)Nc2nccs2)cc1	0.05
Clc1ccccc1	2.84
Clc1nc2c(Cl)c(Cl)c(Cl)c(Cl)c2[nH]1	4.53
O=C(O)COc1ccccc1	1.34
Cc1cccc(N)c1	1.4
CNC(=O)Oc1cccc(C(C)=O)c1	0.9
Oc1cc(Cl)c(Cl)cc1Cl	3.72

SMILES	logP
Cl[C@H]1[C@H](Cl)[C@@H](Cl)[C@@H](Cl)[C@H](Cl)[C@H]1Cl	3.72
Clc1cccc(Cl)c1	3.53
CCOCCO	-0.32
O=c1ccn([C@H]2C[C@H](F)[C@@H](CO)O2)c(=O)[nH]1	-0.49
Nc1cc[nH]c(=O)n1	-1.73
COC(=O)C(C#N)=NNc1ccccc1C(F)(F)F	3.7
O=C1O[C@H]([C@@H](O)CO)C(O)=C1O	-1.85
Nc1cccnc1	0.11
CCCOC(=O)c1ccc(S(N)(=O)=O)cc1	1.75
CCCCCBr	3.37
O=[N+]([O-])c1cc(Br)c(O)c(Br)c1	3.57
O=C(/C=C/c1ccccc1)c1ccccc1	3.08
CCCN(CCC)N=O	1.36
S=C1NCCN1	-0.66
Nc1ccccc1C(=O)O	1.21
Clc1ccccc1-c1ccccc1	4.53
NCCc1ccccc1	1.41
CCCCOc1ccc(CC(=O)NO)cc1	2.08
NC(=O)c1ccc([N+](=O)[O-])cc1	0.82
CCN	-0.13
N#Cc1ccc(S(N)(=O)=O)cc1	0.23
O=C(CCNNC(=O)c1ccncc1)NCc1ccccc1	0.87
CCC1(CCC(C)C)C(=O)NC(=O)NC1=O	2.07
CCCCCN	1.49

SMILES	logP
c1ccc2occc2c1	2.67
CN1C(=O)NC(=O)C(C)(C2=CCCCC2)C1=O (stereo not given)	1.98
O=S(c1ccccc1)c1ccccc1	2.06
O=C1CC(=O)NC(=O)N1	-1.47
O=NN(CCCl)C(=O)NC1CCCCC1	2.83
O=C(O)c1cc([N+](=O)[O-])ccc1O	2.34
Nc1ncnc2c1ncn2[C@H]1CC[C@@H](CO)O1	-0.25
CCC(=O)O	0.33
CCCCCl	2.64
Cc1ccccc1C	3.12
CC(=O)Nc1ccc(OCC(O)CNC(C)C)cc1 (stereo not given)	0.79
Cc1ccc2[nH]ccc2c1	2.68
NC(=O)Cc1ccncc1	-0.65
O=[N+]([O-])c1cccc2ccccc12	3.19
Oc1ccc(-c2ccccc2)cc1	3.2
FC(F)(Cl)C(F)(F)Cl	2.82
Brc1ccc2[nH]ccc2c1	3
O=C(O)c1cccc([N+](=O)[O-])c1	1.83
Oc1cc(O)cc(O)c1	0.16
CCCCNC(=O)NCCCC	1.4
CCc1ccccc1C	3.53
CCc1ccccc1Cl	2.95
CC(O)Cn1cnc2c1c(=O)n(C)c(=O)n2C (stereo not given)	-0.77
COc1ccc(N)cc1	0.95

SMILES	logP
Cc1cc2ccccc2n1C	2.82
Cc1cccnc1	1.2
Cc1ccc2cccc(C)c2c1	4.44
CCc1ccccn1	1.69
Cc1cccc(OCCN(C)C)c1	2.05
CCOc1ccccc1O	1.68
Cc1cc(Cl)ccc1O	2.63
CNC(=O)Oc1ccc(F)cc1	1.28
CCCCC(CC)CN (stereo not given)	2.82
Cc1ccc(C)c(O)c1	2.33
CCc1cccc(OC(=O)NC)c1	2.2
CN(C)CCN1c2ccccc2Sc2ccccc21	4.2
O=C(O)Cc1cccc(I)c1	2.62
FC(F)(F)c1nc2cc(Cl)c(Cl)cc2[nH]1	3.49
O=C(O)COc1ccccc1Br	2.04
Cc1ccc([N+](=O)[O-])cc1	2.37
O=C(O)CONC(=O)Nc1ccccc1	0.26
CC(N)C(=O)O (racemic)	-2.96
COP(=O)(OC)OC	-0.65
CCc1ccc(S(N)(=O)=O)cc1	1.31
Brc1ccc2ncccc2c1	2.83
[O-][n+]1cccc2ccccc21	0.36
N#CCc1ccccc1	1.56
CN(N=O)C(N)=O	-0.03

SMILES	logP
Cc1cn([C@H]2C[C@H](O)[C@@H](CO)O2)c(=O)[nH]c1=O	-0.93
C#C	0.37
CCN(CC)c1ccccc1	3.31
O=C1C=CC(=NO)C=C1	1.08
O=C(O)c1c(O)cccc1O	2.2
CO/N=C/c1ccccc1	2.53
C1CCCC1	3
CCBr	1.61
Cc1cccc(C)c1	3.2
CC(C)NC(=O)C=Cc1ccc([N+](=O)[O-])o1	1.34
Cc1ccccc1N(C)C	2.85
CN(C)CCC(c1ccc(Cl)cc1)c1ccccn1 (stereo not given)	3.38
CO	-0.77
CSc1nnc(CCC(C)C)c(=O)n1N	1.85
Cc1c[n+]([O-])c2ccccc2c1[N+](=O)[O-]	1.06
CI	1.51
CCCCc1ccc(C(=O)O)nc1	-1.29
OCCCc1ccccc1	1.88
CC(N)C(O)c1cccc(O)c1 (stereo not given)	-0.27
OC[C@H]1O[C@@H](n2cnc3c(O)ncnc32)[C@H](O)[C@@H]1O	-2.1
CN(C)CCCN1c2ccccc2Sc2ccccc21	4.55
O=c1ccn([C@@H]2O[C@H](CO)[C@@H](O)[C@H]2O)c(=O)[nH]1	-1.98
Oc1cccc(C(F)(F)F)c1	2.95
Nc1ccccc1Cl	1.9

SMILES	logP
O=C(O)c1cccc(Cl)c1	2.68
CC(=O)C(C#N)=NNc1ccc(SC(F)(F)F)cc1	5.04
CC(=O)OC1C(Cl)C(Cl)C(Cl)C(Cl)C1Cl (stereo not given)	3.4
Oc1ccccc1I	2.65
COc1cccc(/C=C/[N+](=O)[O-])c1	2.37
CCOC(C)OCC	0.84
CN1C(C(=O)Nc2ccccn2)=C(O)c2ccccc2S1(=O)=O	3.06
Cc1ccc(O)c(C)c1	2.3
CC(N)C(O)c1ccccc1 (stereo not given)	0.67
c1ccc2cc3ccccc3cc2c1	4.45
c1cn[nH]c1	0.26
N#Cc1ccc(/C=C/NC=O)cc1	1.62
c1ccc(Nc2ccccc2)cc1	3.5
O=C1CCCO1	-0.64
O=C(O)c1ccccc1I	2.4
O=C(O)c1cc(Br)ccc1O	3.23
CCCNCC(C)C	2.07
O=c1cn[nH]c(=O)[nH]1	-0.59
Oc1ccc(I)cc1	2.91
Cc1ccc2c([N+](=O)[O-])cc[n+]([O-])c2c1	1.42
O=CO	-0.54
CC1CC(C)C(=O)C(C(O)CC2CC(=O)NC(=O)C2)C1 (stereo not given)	0.55
Brc1cnc2ccccc2c1	3.03
[O-][n+]1ccc(Cl)c2ccccc21	1.08

SMILES	logP
CCCCN(CCCC)N=O	2.63
CC(=O)c1ccccc1O	1.92
CCC(C)C1(CC)C(=O)NC(=O)NC1=O (stereo not given)	1.65
CCc1ccccc1N	1.74
O=C(CCCN1CCC(O)(c2ccc(Cl)cc2)CC1)c1ccc(F)cc1	3.36
CNc1ccccc1	1.66
COc1ccc(CC(=O)O)cc1	1.42
Cc1ccc(C)c(C)c1	3.63
CC(C)(S)[C@@H](N)C(=O)O	-1.78
CC1(C)S[C@@H]2[C@H](NC(=O)C(C(=O)O)c3ccccc3)C(=O)N2[C@H]1C(=O)O (stereo not given in full)	1.13
Nc1ccc(S(=O)(=O)Nc2ccnn2-c2ccccc2)cc1	1.52
O=[N+]([O-])/C=C/c1cc([N+](=O)[O-])ccc1Cl	2.23
O=C(O)c1cccnc1	0.36
O=NN1CCOCC1	-0.44
COc1ccc(NS(=O)(=O)c2ccc(N)cc2)cc1	1.51
CCNC	0.15
CCCCc1ccccc1	4.38
CC(=O)Nc1ccc(Cl)cc1	2.09
CC(C)C(=O)C(C#N)=NNc1cc(C(F)(F)F)ccc1Cl	5.31
CNC(=O)Oc1cc(C)ccc1C(C)C	3.11
c1ccc(Cc2ccccc2)cc1	4.14
C=CCOc1cc(C(=O)O)ccc1N	1.25
CC(C)C[C@H](N)C(=O)O	-1.52
OCC=Cc1ccccc1	1.95

SMILES	logP
CNCc1ccccc1	1.52
COc1cc(CCN)cc(OC)c1Br	2.03
Nc1cccc([N+](=O)[O-])c1	1.37
COc1cc(CCN)cc(OC)c1OC	0.78
Nc1nc(S)c2nc[nH]c2n1	-0.07
COC(=O)C(C#N)=NNc1ccc(Cl)cc1C(F)(F)F	4.66
CCCCCOC(N)=O	1.35
C=CCOc1ccc(CC(=O)O)cc1Cl	2.48
Cc1ccc(C)c2ccccc12	4.37
O=C(O)c1cccc2ccccc12	3.1
Nc1nc2c(ncn2[C@@H]2O[C@H](CO)[C@@H](O)[C@H]2O)c(=O)[nH]1	-1.9
c1ccoc1	1.34
CC(C)N(N=O)C(C)C	1.38
NC(CCCc1ccccc1)C(=O)O (stereo not given)	-0.36
O=CNc1ccccc1	1.15
c1ccc2c(c1)[nH]c1ccccc12	3.72
NNC(=O)c1ccncc1	-0.7
